Read-outs that look alike come from different tables or passages of the source.

This passage reports Ki results from patent US20220002314A1 (priority 2018, published 2022).

Assay [1] addresses Human α2δ-1 subunit of Cav2.2 calcium channel (Homo sapiens, UniProt P54289). The assay is described as follows: biochemical. It counts as binding.
The next assay has as its target Human μ-opioid receptor (Homo sapiens, UniProt P35372). The assay is described as follows: biochemical. The class given is binding.

Human α2δ-1 subunit of Cav2.2 calcium channel, sequence (P54289 25-1103): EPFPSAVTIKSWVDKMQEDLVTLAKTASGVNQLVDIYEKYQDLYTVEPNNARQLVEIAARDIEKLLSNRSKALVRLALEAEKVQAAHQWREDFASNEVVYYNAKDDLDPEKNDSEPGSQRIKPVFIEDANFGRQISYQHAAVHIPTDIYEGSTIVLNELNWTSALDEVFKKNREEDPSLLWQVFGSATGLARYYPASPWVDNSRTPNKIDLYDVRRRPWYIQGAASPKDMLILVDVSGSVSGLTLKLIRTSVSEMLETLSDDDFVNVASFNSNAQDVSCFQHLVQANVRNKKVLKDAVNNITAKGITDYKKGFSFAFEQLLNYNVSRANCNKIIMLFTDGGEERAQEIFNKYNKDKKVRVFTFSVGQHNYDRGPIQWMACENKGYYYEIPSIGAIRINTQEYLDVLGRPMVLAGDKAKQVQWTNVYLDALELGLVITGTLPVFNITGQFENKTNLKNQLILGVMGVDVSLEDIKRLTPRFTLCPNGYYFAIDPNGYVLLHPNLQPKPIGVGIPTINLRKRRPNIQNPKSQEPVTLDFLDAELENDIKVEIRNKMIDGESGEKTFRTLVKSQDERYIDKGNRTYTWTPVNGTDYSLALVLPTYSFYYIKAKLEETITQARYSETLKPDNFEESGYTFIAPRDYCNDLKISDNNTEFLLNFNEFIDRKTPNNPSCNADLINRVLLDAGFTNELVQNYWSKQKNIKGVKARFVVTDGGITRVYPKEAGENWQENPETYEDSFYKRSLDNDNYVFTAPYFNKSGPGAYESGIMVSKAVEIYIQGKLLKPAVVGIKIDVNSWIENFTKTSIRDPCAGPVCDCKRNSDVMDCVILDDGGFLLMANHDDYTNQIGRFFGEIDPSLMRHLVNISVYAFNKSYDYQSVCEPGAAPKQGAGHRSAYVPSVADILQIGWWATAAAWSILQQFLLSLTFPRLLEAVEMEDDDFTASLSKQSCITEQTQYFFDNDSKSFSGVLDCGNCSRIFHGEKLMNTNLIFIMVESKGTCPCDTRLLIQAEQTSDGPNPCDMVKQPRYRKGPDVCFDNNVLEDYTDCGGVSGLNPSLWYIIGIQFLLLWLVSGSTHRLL
Human μ-opioid receptor, sequence (P35372 whole entry): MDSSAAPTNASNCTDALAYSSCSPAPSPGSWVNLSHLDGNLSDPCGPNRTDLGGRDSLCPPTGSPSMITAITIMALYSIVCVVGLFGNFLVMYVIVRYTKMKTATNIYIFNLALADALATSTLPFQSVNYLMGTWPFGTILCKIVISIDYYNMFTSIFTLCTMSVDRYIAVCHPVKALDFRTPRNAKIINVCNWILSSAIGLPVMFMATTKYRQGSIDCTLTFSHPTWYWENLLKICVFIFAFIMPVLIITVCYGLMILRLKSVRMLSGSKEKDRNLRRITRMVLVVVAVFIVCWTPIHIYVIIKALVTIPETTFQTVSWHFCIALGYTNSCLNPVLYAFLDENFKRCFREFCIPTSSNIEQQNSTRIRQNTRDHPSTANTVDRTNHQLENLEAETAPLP

With `CCCC(c1nc2cc(-c3cccc(O)c3)ccc2c(=O)n1CC)N1C[C@@H](C)N[C@@H](C)C1` (stereo partly drawn) [Example 134, 2-(1-((3S,5R)-3,5-dimethylpiperazin-1-yl)butyl)-3-ethyl-7-(3-hydroxyphenyl)quinazolin-4(3H)-one], the figures for the Ki (in assay [1]; at Human μ-opioid receptor) were less than 500 nM and more than 500 nM, respectively.

As to `CCCC(c1nc2cc(-c3ccnc(OC)c3)ccc2c(=O)n1CC)N1C[C@@H](C)N[C@@H](C)C1` (stereo partly drawn) [Example 135, 2-(1-((3S,5R)-3,5-dimethylpiperazin-1-yl)butyl)-3-ethyl-7-(2-methoxypyridin-4-yl)quinazolin-4(3H)-one], the Ki was less than 500 nM in assay [1] and more than 500 nM at Human μ-opioid receptor.

As for `CCCC(c1nc2cc(-c3ccnc(CNC)c3)ccc2c(=O)n1C)N1C[C@@H](C)N[C@@H](C)C1` (stereo partly drawn) [Example 136, 2-(1-((3S,5R)-3,5-dimethylpiperazin-1-yl)butyl)-3-methyl-7-(2-((methylamino)methyl)pyridin-4-yl)quinazolin-4(3H)-one], the Ki is 500 to 5000 nM in assay [1] (read-out: α2δ-1 binding) and more than 500 nM on Human μ-opioid receptor (read-out: μ-binding).

For `CCCC(c1nc2cc(N3CCCC3)ccc2c(=O)n1CC)N1C[C@@H](C)N[C@@H](C)C1` (stereo partly drawn) [Example 137, 2-(1-((3S,5R)-3,5-Dimethylpiperazin-1-yl)butyl)-3-ethyl-7-(pyrrolidin-1-yl)quinazolin-4(3H)-one], the Ki was less than 500 nM in assay [1] and more than 500 nM on Human μ-opioid receptor.

On to `CCCC(c1nc2ccc(N3CCCC3)cc2c(=O)n1CC)N1C[C@@H](C)N[C@@H](C)C1` (stereo partly drawn) [Example 138, 2-(1-((3S,5R)-3,5-dimethylpiperazin-1-yl)butyl)-3-ethyl-6-(pyrrolidin-1-yl)quinazolin-4(3H)-one], for which the Ki was less than 500 nM in assay [1] and more than 500 nM on Human μ-opioid receptor.

As for `CCCC(c1nc2ccc(N3CCC(N(C)C)CC3)cc2c(=O)n1CC)N1C[C@@H](C)N[C@@H](C)C1` (stereo partly drawn) [Example 139, 6-(4-(dimethylamino)piperidin-1-yl)-2-(1-((3S,5R)-3,5-dimethylpiperazin-1-yl)butyl)-3-ethylquinazolin-4(3H)-one], the Ki is less than 500 nM in assay [1] and more than 500 nM on Human μ-opioid receptor.

For `CCCC(c1nc2ccc(N3CCC(NC)CC3)cc2c(=O)n1CC)N1C[C@@H](C)N[C@@H](C)C1` (stereo partly drawn) [Example 140, 2-(1-((3S,5R)-3,5-dimethylpiperazin-1-yl)butyl)-3-ethyl-6-(4-(methylamino)piperidin-1-yl)quinazolin-4(3H)-one], the Ki was less than 500 nM in assay [1] and more than 500 nM on Human μ-opioid receptor.

Regarding `CCCC(c1nc2ccc(N3CCC(N)CC3)cc2c(=O)n1CC)N1C[C@@H](C)N[C@@H](C)C1` (stereo partly drawn) [Example 141, 6-(4-aminopiperidin-1-yl)-2-(1-((3S,5R)-3,5-dimethylpiperazin-1-yl)butyl)-3-ethylquinazolin-4(3H)-one], the Ki in assay [1] is less than 500 nM; at Human μ-opioid receptor, more than 500 nM.

With `CCCC(c1nc2ccc(N(C)C3CCN(C)CC3)cc2c(=O)n1CC)N1C[C@@H](C)N[C@@H](C)C1` (stereo partly drawn) [Example 143, 2-(1-((3S,5R)-3,5-dimethylpiperazin-1-yl)butyl)-3-ethyl-6-(methyl(1-methylpiperidin-4-yl)amino)quinazolin-4(3H)-one], the Ki in assay [1] was less than 500 nM; at Human μ-opioid receptor (binding to μ-opioid receptor expressed as Ki, + also Ki>500 nM or inhibition between 1% and 50%, read-out: μ-binding) it was more than 500 nM.

Consider `CCCC(c1nc2ccc(N(C)Cc3ccccc3)cc2c(=O)n1CC)N1C[C@@H](C)N[C@@H](C)C1` (stereo partly drawn) [Example 144, 6-(benzyl(methyl)amino)-2-(1-((3S,5R)-3,5-dimethylpiperazin-1-yl)butyl)-3-ethylquinazolin-4(3H)-one], for which the Ki was less than 500 nM in assay [1] and more than 500 nM on Human μ-opioid receptor.

As for `CCCC(c1nc2ccc(NCCNC)cc2c(=O)n1CC)N1C[C@@H](C)N[C@@H](C)C1` (stereo partly drawn) [Example 145, 2-(1-((3S,5R)-3,5-dimethylpiperazin-1-yl)butyl)-3-ethyl-6-((2-(methylamino)ethyl)amino)quinazolin-4(3H)-one], the Ki in assay [1] is less than 500 nM; on Human μ-opioid receptor it was more than 500 nM.

As for `CCCC(c1nc2ccc(N(C)CCNC)cc2c(=O)n1CC)N1C[C@@H](C)N[C@@H](C)C1` (stereo partly drawn) [Example 146, 2-(1-((3S,5R)-3,5-dimethylpiperazin-1-yl)butyl)-3-ethyl-6-(methyl(2-(methylamino)ethyl)amino)quinazolin-4(3H)-one], the Ki in assay [1] is less than 500 nM; on Human μ-opioid receptor it was more than 500 nM.

For the compound `CCCC(c1nc2cc(NCCNC)ccc2c(=O)n1CC)N1C[C@@H](C)N[C@@H](C)C1` (stereo partly drawn) [Example 147, 2-(1-((3S,5R)-3,5-dimethylpiperazin-1-yl)butyl)-3-ethyl-7-((2-(methylamino)ethyl)amino)quinazolin-4(3H)-one], the Ki in assay [1] is less than 500 nM; at Human μ-opioid receptor, more than 500 nM.

Consider `CCCC(c1nc2ccc(N3CC=C(c4ccccc4O)CC3)cc2c(=O)n1CC)N1C[C@@H](C)N[C@@H](C)C1` (stereo partly drawn) [Example 148, 2-(1-((3S,5R)-3,5-dimethylpiperazin-1-yl)butyl)-3-ethyl-6-(4-(2-hydroxyphenyl)-5,6-dihydropyridin-1(2H)-yl)quinazolin-4(3H)-one], for which the Ki in assay [1] is less than 500 nM; at Human μ-opioid receptor, more than 500 nM.

As for `CCCC(c1nc2ccc(N3CCC(N(C)Cc4ccccc4)CC3)cc2c(=O)n1CC)N1C[C@@H](C)N[C@@H](C)C1` (stereo partly drawn) [Example 151, 6-(4-(benzyl(methyl)amino)piperidin-1-yl)-2-(1-((3S,5R)-3,5-dimethylpiperazin-1-yl)butyl)-3-ethylquinazolin-4(3H)-one], the Ki in assay [1] is less than 500 nM; at Human μ-opioid receptor, more than 500 nM.

`CCC[C@@H](c1nc2ccc(N3C[C@H](C)OC4(CCNCC4)C3)cc2c(=O)n1CC)N1C[C@@H](C)N[C@@H](C)C1` [Example 152, 2-((S)-1-((3S,5R)-3,5-Dimethylpiperazin-1-yl)butyl)-3-ethyl-6-((S)-2-methyl-1-oxa-4,9-diazaspiro[5.5]undecan-4-yl)quinazolin-4(3H)-one]: the Ki in assay [1] (read-out: α2δ-1 binding) is 500 to 5000 nM; at Human μ-opioid receptor (read-out: μ-binding), more than 500 nM.

With `CCC[C@H](c1nc2ccc(N3C[C@H](C)OC4(CCNCC4)C3)cc2c(=O)n1CC)N1C[C@@H](C)N[C@@H](C)C1` [Example 153, 2-((R)-1-((3S,5R)-3,5-dimethylpiperazin-1-yl)butyl)-3-ethyl-6-((S)-2-methyl-1-oxa-4,9-diazaspiro[5.5]undecan-4-yl)quinazolin-4(3H)-one], the Ki in assay [1] (read-out: α2δ-1 binding) is 500 to 5000 nM; on Human μ-opioid receptor (read-out: μ-binding) it was more than 500 nM.

Consider `CCC[C@@H](c1nc2ccc(N3C[C@@H](C)OC4(CCN(CCc5ccccc5)CC4)C3)cc2c(=O)n1CC)N1C[C@@H](C)N[C@@H](C)C1` [Example 154, 2-((S)-1-((3S,5R)-3,5-Dimethylpiperazin-1-yl)butyl)-3-ethyl-6-((R)-2-methyl-9-phenethyl-1-oxa-4,9-diazaspiro[5.5]undecan-4-yl)quinazolin-4(3H)-one], for which the Ki was less than 500 nM in assay [1] and more than 500 nM at Human μ-opioid receptor.

For `CCC[C@@H](c1nc2ccc(N3C[C@H](C)OC4(CCN(CCc5ccccc5)CC4)C3)cc2c(=O)n1CC)N1C[C@@H](C)N[C@@H](C)C1` [Example 155, 2-((S)-1-((3S,5R)-3,5-dimethylpiperazin-1-yl)butyl)-3-ethyl-6-((S)-2-methyl-9-phenethyl-1-oxa-4,9-diazaspiro[5.5]undecan-4-yl)quinazolin-4(3H)-one], the Ki in assay [1] was less than 500 nM; on Human μ-opioid receptor, more than 500 nM.
